The assay relates to α-cells. The experiment in a line: in vitro α-cell proliferation assay (cultured mouse islets, cytospin, Ki67+ glucagon+ counting). Type of assay: cell-based. Conditions: for alpha cell proliferation at high levels of the amino acid: high levels of the single amino acid; for α-cell proliferation when the amino acid is lowered to Gcgr+/+ serum levels: all other amino acids kept at high (Gcgr−/− serum) concentrations; for linear regression of amino acid concentration in media versus α-cell proliferation: media conditions of Table 1. An excerpt:
To maximize the ability to quantify proliferating α-cells intact mouse islets were first cultured in media supplemented with Gcgr−/− or Gcgr+/+ mouse serum, dispersing the islets into cells, and then the cells centrifuged into a focused monolayer of cells using a cytospin centrifuge (FIG. 1A). […] To further maximize the throughput of this assay, a cytonuclear algorithm was developed to automate quantification of α-cell proliferation in cytospin islet images (FIG. 7C).
Pancreatic islets were isolated from male 8-14 week old C57B16/J mice (Jackson Laboratory, ME) and cultured in various media conditions for 3 days. […] For complete amino acid content in each media condition, see Table 1. For serum fractionation, serum was centrifuged for 1 hour at 2000×g at room temperature in a 10 kDa molecular weight cutoff spin column (Millipore, Billerica, Mass.). […] For lipid removal, serum was treated with Cleanascite reagent (Biotech Support Group, Monmouth Junction, N.J.) prior to islet culture at a 1:1 ratio according to the vendor's protocol.
Dispersed islet cells were recovered by centrifugation in RPMI media containing 5.6 mM glucose, 10% FBS, and 1% Penicillin/Streptomycin. The resulting cell pellet was resuspended in 100 ul of media and centrifuged onto a glass slide using a cytospin (Thermo Scientific, Waltham, Mass.) centrifuge. Air-dried slides were stored at −80° C. until use, thawed, and immediately fixed in 4% paraformaldehyde before immunocytochemistry. Slides were mounted with Aqua-Poly/Mount (Warrington, Pa.).
Cytospin slides were imaged using a Leica Microsystems Epifluorescent Microscope DM1 6000B. Tiled images were analyzed by a cytonuclear algorithm developed using the […] Software package (Indica Labs) (FIG. 7A). A glucagon surface was created by mapping glucagon immunoreactivity. DAPI and Ki67 positive cells were identified using a spot mapping algorithm. α-cells were identified by masking the glucagon surface on the DAPI staining and then creating a pseudospot where each α-cell was identified. Colocalization was determined by coregistering glucagon pseudospots with Ki67 spots. Each image was then manually checked for accuracy. For all islet culture experiments, a minimum of 500 α-cells counted per replicate (i.e. n=1) were required to be included in an experiment.

The text below walks through data of patent US20170348398A1, “COMPOSITIONS AND METHODS FOR DECREASING BLOOD GLUCAGON LEVELS” (Vanderbilt University, priority 2016, published 2017).

Consider `CC[C@H](C)[C@H](N)C(=O)O` [isoleucine], for which the “alpha cell proliferation at high levels of the amino acid” value (shortened to “alpha cell proliferation at high levels”) is “not”.

Consider `O=C(O)[C@@H]1CCCN1` [proline], for which the “alpha cell proliferation at high levels” value is listed as “not”.

Take `N[C@@H](Cc1ccc(O)cc1)C(=O)O` [tyrosine]: the “alpha cell proliferation at high levels” value is listed as “not”.

For `NC(=O)NCCC[C@H](N)C(=O)O` [Citrulline], where the note is “cultured mouse islets, 3 days”, the α-cell proliferation entry is “failed to stimulate α-cell proliferation”.

As to `NCC(=O)O` [glycine], the “alpha cell proliferation at high levels” value is given as “not”.

Turning to `CSCC[C@H](N)C(=O)O` [methionine], the “alpha cell proliferation at high levels” value is on record as “not”.

For `CC(C)C[C@H](N)C(=O)O` [L-leucine], the “α-cell proliferation when the amino acid is lowered to Gcgr+/+ serum levels” value is listed as “not required for increased α-cell proliferation”; the “linear regression of amino acid concentration in media versus α-cell proliferation” value is “significantly and positively correlated”.

As for `NCCC[C@H](N)C(=O)O` [ornithine], the “alpha cell proliferation at high levels” value is “not”. Moreover, for the setting “cultured mouse islets, 3 days”, the α-cell proliferation entry is reported as “failed to stimulate α-cell proliferation”.

Regarding `NCCCC[C@H](N)C(=O)O` [lysine], the “alpha cell proliferation at high levels” value is listed as “not”.

Regarding `C[C@H](N)C(=O)O` [alanine], the “alpha cell proliferation at high levels” value is listed as “not”. Further, for the setting “cultured mouse islets, 3 days”, the α-cell proliferation result was “failed to stimulate α-cell proliferation”.

With `NC(=O)C[C@H](N)C(=O)O` [asparagine], the “alpha cell proliferation at high levels” value is on record as “not”.

For the molecule `N[C@@H](CCC(=O)O)C(=O)O` [L-glutamic acid], the “α-cell proliferation when the amino acid is lowered to Gcgr+/+ serum levels” value is recorded as “not required for increased α-cell proliferation”; the “linear regression of amino acid concentration in media versus α-cell proliferation” value is “significantly and positively correlated”.

Turning to `CC(C)[C@H](N)C(=O)O` [valine], the “alpha cell proliferation at high levels” value is on record as “not”.

As for `N[C@@H](Cc1c[nH]cn1)C(=O)O` [histidine], the “alpha cell proliferation at high levels” value is recorded as “not”.

On to `N=C(N)NCCC[C@H](N)C(=O)O` [arginine], for which the “alpha cell proliferation at high levels” value is “stimulated alpha cell proliferation”.

Take `NC(=O)CC[C@H](N)C(=O)O` [L-glutamine]: the “α-cell proliferation when the amino acid is lowered to Gcgr+/+ serum levels” value is given as “abolished the stimulation of α-cell proliferation”; the “linear regression of amino acid concentration in media versus α-cell proliferation” value is “significantly and positively correlated”. In addition, under “cultured mouse islets, 3 days”, the “non α-cell proliferation” value is “no effect” and the α-cell proliferation entry is “in a dose-dependent fashion increased α-cell proliferation”.

For `N[C@@H](CO)C(=O)O` [serine], the “alpha cell proliferation at high levels” value is listed as “not”.

B1: activin A: Recombinant mouse Activin A protein (R&D Biosystems) (protein, UniProt Q04998 309-424, looked up)
Inhibin beta A chain: GLECDGKVNICCKKQFFVSFKDIGWNDWIIAPSGYHANYCEGECPSHIAGTSGSSLSFHSTVINHYRMRGHSPFANLKSCCVPTKLRPMSMLYYDDGQNIIKKDIQNMIVEECGCS
modifications: Inhibin beta A chain
For B1, under “cultured mouse islets, 3 days”, the α-cell proliferation result is on record as “did not stimulate α-cell proliferation”.
